Experimental data from patent US12698507B2, “Methods and compositions for conferring and/or enhancing herbicide tolerance using protoporphyrinogen IX oxidase of various cyanobacteria or variant thereof” (FarmHannong Co., Ltd., priority 2019, dated 2026).
Read-outs that look alike come from different tables or passages of the source.

Assays:
[1] = target: Thermosynechococcus elongatus PKUAC-SCTE542 protoporphyrinogen IX oxidase CyPPO19 (SEQ ID NO: 1) variant V165C (MBP fusion) (Thermosynechococcus sichuanensis, UniProt A0A7D6JSC1, V165C); test: PPO enzyme inhibition assay (IC50 for herbicides), CyPPO19 V165C fused to MBP; type: biochemical
[2] = test system: PPO-deficient BT3 E. coli (ΔPPO) transformed with CyPPO19 variant R89A+F360I (Thermosynechococcus elongatus PKUAC-SCTE542, SEQ ID NO: 1); test: Herbicide tolerance test in E. coli, CyPPO19 R89A+F360I; type: cell-based; conditions: LB agar, 0 to 2,000 μM herbicide, 37° C., 16-20 hours
Text: (§1) To enhance the PPO-inhibiting herbicide resistance of CyPPO19 and CyPPO18, PPO variant genes of the above example 2 were constructed. They were transformed to BT3 (ΔPPO) strain which is deficient of PPO activity and cultured in LB media with PPO-inhibiting herbicide, thereby examining whether growth of transformed BT3 was not inhibited.
(§2) BT3 competent cells were transformed with the pET303-CyPPO19 (wild type), pET303-CyPPO18 (wild type) plasmids, and those with a mutation(s) constructed (refer to example 2) via heat shock method, and were cultured in LB agar media containing ampicillin.
(§3) Single colony transformed with each CyPPO gene was cultured in 3 mL of LB broth (LPSS) containing ampicillin for more than 12 hours, and then was subcultured in LB broth until absorbance (OD600) reached 0.5 to 1. Then, it was diluted with LB broth to OD600=0.5. Again, the diluted solution was serially diluted 4 times by a factor of one tenth. […]
(§4) Then, 10 μL of each diluted solution of E. coli was dropped on the plate and cultured at 37° C. under dark for 16-20 hours. PPO-inhibiting herbicide resistance was evaluated with the extent of E. coli growth containing each gene was observed.
(§5) The extent of herbicide resistance was evaluated by the relative growth of variants to that of wild type, and listed in Tables 9 and 10 and FIGS. 3 to 32. […]

[3] = target: Thermosynechococcus vulcanus NIES-2134 protoporphyrinogen IX oxidase CyPPO18 (SEQ ID NO: 3) variant A167C (MBP fusion) (Thermosynechococcus vestitus, UniProt Q8DLV2, A167C); test: PPO enzyme inhibition assay (IC50 for herbicides), CyPPO18 A167C fused to MBP; type: biochemical; conditions: 50 μM protoporphyrinogen IX, pH 7.5, room temperature, 30 min
[4] = test system: PPO-deficient BT3 E. coli (ΔPPO) transformed with CyPPO18 variant R89A+F360V (Thermosynechococcus vulcanus NIES-2134, SEQ ID NO: 3); type: cell-based; conditions: LB agar, 0 to 2,000 μM herbicide, 37° C., 16-20 hours
Text: as §1, §2, §3, §4, §5

[5] = target: Thermosynechococcus vulcanus NIES-2134 protoporphyrinogen IX oxidase CyPPO18 (SEQ ID NO: 3) variant R89A (MBP fusion) (Thermosynechococcus vestitus, UniProt Q8DLV2, R89A); test: PPO enzyme inhibition assay (IC50 for herbicides), CyPPO18 R89A fused to MBP; type: biochemical; conditions: 50 μM protoporphyrinogen IX, pH 7.5, room temperature, 30 min
[6] = test system: PPO-deficient BT3 E. coli (ΔPPO) transformed with CyPPO18 variant L327T+F360M (Thermosynechococcus vulcanus NIES-2134, SEQ ID NO: 3); test: Herbicide tolerance test in E. coli, CyPPO18 L327T+F360M; type: cell-based; parameters: key to the marks not given beside the values; conditions: LB agar, 0 to 2,000 μM herbicide, 37° C., 16-20 hours
Text: as §1, §2, §3, §4, §5

[7] = target: Thermosynechococcus vulcanus NIES-2134 protoporphyrinogen IX oxidase CyPPO18 (SEQ ID NO: 3) variant V165S (MBP fusion) (Thermosynechococcus vestitus, UniProt Q8DLV2, V165S); test: PPO enzyme inhibition assay (IC50 for herbicides), CyPPO18 V165S fused to MBP; type: biochemical; conditions: 50 μM protoporphyrinogen IX, pH 7.5, room temperature, 30 min
Thermosynechococcus vulcanus NIES-2134 protoporphyrinogen IX oxidase CyPPO18 (SEQ ID NO: 3) variant V165S (MBP fusion), sequence (Q8DLV2 entry or part of it V165S): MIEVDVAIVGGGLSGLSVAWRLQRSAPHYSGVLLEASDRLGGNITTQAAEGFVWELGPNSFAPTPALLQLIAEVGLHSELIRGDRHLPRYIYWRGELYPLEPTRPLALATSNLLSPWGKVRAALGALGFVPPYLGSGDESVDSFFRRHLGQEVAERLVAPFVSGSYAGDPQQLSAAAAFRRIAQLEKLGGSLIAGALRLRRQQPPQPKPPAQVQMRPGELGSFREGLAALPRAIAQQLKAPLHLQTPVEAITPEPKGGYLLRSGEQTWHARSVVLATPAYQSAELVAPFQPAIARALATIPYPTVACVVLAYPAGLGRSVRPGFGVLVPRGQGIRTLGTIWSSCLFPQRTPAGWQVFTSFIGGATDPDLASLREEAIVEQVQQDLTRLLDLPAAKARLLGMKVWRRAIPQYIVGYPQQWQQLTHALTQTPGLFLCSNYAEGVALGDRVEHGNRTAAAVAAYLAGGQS

Thermosynechococcus vulcanus NIES-2134 protoporphyrinogen IX oxidase CyPPO18 (SEQ ID NO: 3) variant R89A (MBP fusion), sequence (Q8DLV2 entry or part of it R89A): as the sequence (Q8DLV2 entry or part of it V165S) above, with R89A, S165V counted along it
Thermosynechococcus elongatus PKUAC-SCTE542 protoporphyrinogen IX oxidase CyPPO19 (SEQ ID NO: 1) variant V165C (MBP fusion), sequence (A0A7D6JSC1 entry or part of it V165C): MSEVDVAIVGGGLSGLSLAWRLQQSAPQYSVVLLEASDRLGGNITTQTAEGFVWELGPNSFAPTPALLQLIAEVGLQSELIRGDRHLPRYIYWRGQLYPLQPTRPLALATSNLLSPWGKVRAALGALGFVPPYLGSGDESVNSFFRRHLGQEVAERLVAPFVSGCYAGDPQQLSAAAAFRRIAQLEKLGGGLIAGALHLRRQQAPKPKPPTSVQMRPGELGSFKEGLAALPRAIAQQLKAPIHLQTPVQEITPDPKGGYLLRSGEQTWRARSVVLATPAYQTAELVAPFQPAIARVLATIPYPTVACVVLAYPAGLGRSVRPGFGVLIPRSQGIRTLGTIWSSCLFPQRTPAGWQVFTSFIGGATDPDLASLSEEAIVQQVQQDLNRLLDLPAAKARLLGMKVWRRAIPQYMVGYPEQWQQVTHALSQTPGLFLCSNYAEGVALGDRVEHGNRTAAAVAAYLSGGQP
Thermosynechococcus vulcanus NIES-2134 protoporphyrinogen IX oxidase CyPPO18 (SEQ ID NO: 3) variant A167C (MBP fusion), sequence (Q8DLV2 entry or part of it A167C): as the sequence (Q8DLV2 entry or part of it V165S) above, with S165V, A167C counted along it

Structure (SMILES) | IC50 [1] [nM] | tolerance level (relative growth of variant to wild type) [2] | IC50 [3] [nM] | tolerance level (relative growth of variant to wild type) [4] | IC50 [5] [nM] | tolerance level (relative growth of variant to wild type) [6] | IC50 [7] [nM] | IC50 ([1]; CyPPO19 V165C, 50 μM protoporphyrinogen IX, pH 7.5, room temperature, 30 min) [nM]
CCOc1cc(Oc2ccc(C(F)(F)F)cc2Cl)ccc1[N+](=O)[O-] [Oxyfluorfen] | 3210 | + | 570 | + | 491 | ++ | 1490 | –
Cc1nn(-c2cc(CC(Cl)C(=O)O)c(Cl)cc2F)c(=O)n1C(F)F (centres unmarked) [Carfentrazone] | – | + | 1880 | ++ | 872 | ++ | 2230 | 3090
